Experimental data reported in patent US11351271B2, “RNA-based logic circuits with RNA binding proteins, aptamers and small molecules” (priority 2014, dated 2022).

What was measured:
[1] = system: DDe (human estrogen receptor ligand binding domain) fused to Fluc2; settings: C2C12
DDd-L7Ae [2] = assay: DDd-L7Ae OFF switch on replicon in myotubes differentiated from C2C12; type: cell-based
DDd-L7Ae [3] = system: DDd-L7Ae

CC/C(=C(\c1ccc(O)cc1)c1ccc(OCCN(C)C)cc1)c1ccccc1 [4-OHT, 4-hydroxytamoxifin]
Increase of DDe-Fluc2 expression compared to no small molecule [1]: 6.4 fold

O=C1Nc2ccc3ncsc3c2/C1=C/c1cnc[nH]1 [C16]
Effect on expression and fold change of the DDd-L7Ae circuit (DDd-L7Ae [2]; myotubes): increase expression and overall fold change

COc1cc(Cc2cnc(N)nc2N)cc(OC)c1OC [TMP, trimethoprim]
Decrease in expression after addition of TMP (DDd-L7Ae [2]; mouse myotubes, optimized circuit with PKR inhibitors): 15 fold
Repression of reporter upon addition of TMP (DDd-L7Ae [3]): 22.5 fold
